Measured values from patent US9045474B2, “Compounds and compositions for mitigating tissue damage and lethality” (The Regents of the University of California, priority 2010, dated 2015).

Columns and labels:
C3H mice = assay: Mitigation of radiation-induced lethality in C3H mice (8Gy, LD100/30); settings: 8Gy; 75 mg/kg at 1 hr and 25 hrs post exposure; past 30 days; first small study
Description: Radiomitigation studies were conduced by pre-treating C3H mice with the compounds of interest at as concentration of 75 mg/kg and at 24 hrs and 1 hr before an 8 Gy exposure. On a 5×24 mitigation treatment protocol mice were first lethally irradiated with 8 Gy and 24 hrs later received the first subcutaneous injection with the compound suspension with subsequent injections at 48, 72, 96, and 120 hrs. The concentration of the compound in the suspension was 75 mg/kg carrier with either 1N saline or phosphate buffer solution (PBS).
C3H mice in the mitigation experiment were irradiated with 8Gy and then injected with 75 mg/kg 1 hr post exposure and then again 25 hrs post exposure.

Yeast cells = assay: DEL assay, antioxidant radioprotection by yeast growth phase; type: cell-based, Saccharomyces cerevisiae
From the text: In this study we used the DEL assay to measure gamma-ray induced DNA deletions throughout different phases of yeast culture growth. While yeast survival only differed by as much as two fold throughout the yeast growth phase, proliferating cells in lag and early exponential growth phases were ten-fold more sensitive to ionizing radiation-induced DNA deletions than cells in stationary growth. […] The ability of antioxidants L-ascorbic acid and DMSO to protect against radiation-induced DNA deletions was also measured within the different phases of yeast culture growth. […] This knowledge was used for the screening of radioprotectors.

yeast S. cerevisiae = assay: Yeast DNA deletions (reversion to histidine prototrophy) after γ-rays; type: cell-based, Saccharomyces cerevisiae; settings: data not shown
[1] = system: Human lymphoblastoid cells; assay: Colony survival assay after ionizing radiation; type: cell-based; settings: data not shown
[2] = system: Human lymphoblastoid cells; assay: γ-H2AX foci formation after ionizing radiation; type: cell-based; settings: data not shown
mouse peripheral blood = system: mouse peripheral blood
Description: In this study, we examined the role of N-acetyl-L-cysteine (NAC), a clinically proven safe agent, for it's ability to protect against γ-ray-induced DNA strand breaks and/or DNA deletions in yeast and mammals. In the yeast S. cerevisiae, DNA deletions were scored by reversion to histidine prototrophy. Human lymphoblastoid cells were examined for the frequency of γ-H2AX foci formation, indicative of DNA double strand break formation. DNA strand breaks were also measured in mouse peripheral blood by the alkaline comet assay.

[3] = Preliminary studies of Targeted Library analogs (DEL/Survival assay); type: cell-based
From the text: Analogues within at least 70% or greater similarity as defined by the Tanimoto rule of similarity are believed to have similar results as the aforementioned compounds in this application. […] Other structures within this limitation (Tanimoto rule of similarity as described and positive in DEL/Survival assay) are included. The DEL Assay, which is further described below, has established itself not only as a effective tool in carcinogenic activity detection but also as an effective methodology in establishing DNA protective properties against insults such as free radicals and ionizing radiation (see, e.g., Sobol, Z., et al., Mutation Research/Fundamental and Molecular Mechanisms of Mutagenesis, 2008. 638(1-2): p. 83-89, Hafer, K., Rivina, L., Schiestl, R H. Yeast DEL assay detects protection against radiation induced cytotoxicity and genotoxicity—adaptation of a microtiter plate version, Radiation Research, 2010, 174(6):719-26)). Thus, the DEL Assay is a reliable tool for the prediction of genotoxic and cytotoxic modulating agents. These agents also include, but are not limited to, ionizing radiation, UV radiation, environmental carcinogenesis, genetic instability, etc.
Compounds in the Targeted Library are selected as a development candidate using the Tanimoto coefficient. […]

[4] = lag and early exponential growth phases
[5] = non-dividing cells in stationary phase

NCCCNCCSP(=O)(O)O [Amifostine, reference compound]
mice survived LD100/30 irradiation (C3H mice): 33%

C[S+](C)[O-] [DMSO]
protection against radiation-induced DNA deletions (Yeast cells; [4]): protected
protection against radiation-induced DNA deletions (Yeast cells; [5]): could not be protected

CC(=O)N[C@@H](CS)C(=O)O [NAC, N-acetyl-L-cysteine]
frequency of IR-induced DNA deletions (yeast S. cerevisiae): reduced the frequency of IR-induced DNA deletions
protection against cell death (yeast S. cerevisiae): did not protect against cell death
protective effect in colony survival [1]: no protective effect
γ-H2AX foci formation [2]: reduced γ-H2AX foci formation
genotoxicity of treatment alone (mouse peripheral blood; mouse, in vivo): not genotoxic
protection against DNA strand breaks (mouse peripheral blood; via drinking water, whole-body irradiated with 1 Gy): fully protected against DNA strand breaks

O=C1O[C@H]([C@@H](O)CO)C(O)=C1O [L-ascorbic acid]
protection against radiation-induced DNA deletions (Yeast cells; [4]): protected
protection against radiation-induced DNA deletions (Yeast cells; [5]): could not be protected

Cc1sc(NC(=O)CN(Cc2ccccc2)C(=O)c2ccccc2)c(C(N)=O)c1C [2-[2-(Benzoyl-benzyl-amino)-acetylamino]-4,5-dimethyl-thiophene-3-carboxylic acid amide]
activity in preliminary studies [3]: shown activity
